Results reported in patent publication EP1056745B1, “6,9-DISUBSTITUTED 2- TRANS-(4- AMINOCYCLOHEXYL) AMINO]PURINES” (Aventis Pharmaceuticals Inc., priority 1998, dated 1999).

Assays:
[1] = test system: PC-3 Human Prostate Tumor; assay: Subrenal capsule assay, inhibition of PC-3 tumor growth; type: in vivo, Nude Mice; details: for V/V0 (mean ± s.e.m.): 12 days, Experiment # 1; for %T/C: day 12, Experiment # 1
Method: Nude mice were housed in microisolator cages under positive air pressure. Surgical procedures and dosing were performed in a laminar flow cabinet. The subrenal capsule assay was performed as described in Bogden, A. E., Kelton, D. E., Cobb, W. R. and Esber, H. J. A rapid screening method for testing chemotherapeutic agents against human tumor xenografts. In: D. P. Houchens and A. A. Ovejera (eds.), Proceedings of the Symposium on the Use of Athymic (Nude) Mice in Cancer Research, pp 231-250. New York: Gustav Fischer New York, Inc. 1978. Briefly, tumors of 400-500 mm^3 obtained from maintenance mice were cut into 1 mm^3 pieces and the sizes checked using an ocular micrometer and a dissecting microscope. After exteriorization of the kidney, tumor pieces were implanted under the capsule of the kidneys of male nude mice (6-8 weeks of age) using a 13 Ga trochar. After implantation, the longest and shortest diameters of the tumor piece were measured using the ocular micrometer and a dissecting microscope. The kidney was placed back into the body cavity and the body wall incision closed with silk sutures and the skin incision closed with wound clips. Drug treatment was begun on the day following implantation and continued for 12 days at which time the kidneys were again exteriorized and tumor size measured as described above. Tumor volume was calculated by the formula, V = length x width^2/2 as described in Houchens, D. P., Ovejera, A. A., and Barker, A. D. The therapy of human tumors in athymic (nude) mice. In : D. P. Houchens and A. A. Ovejera (eds.), Proceedings of the Symposium on the Use of Athymic (Nude) Mice in Cancer Research, pp. 267-280. New York: Gustav Fischer New York, Inc., 1978.

[2] = test system: CDK-cyclin protein kinases; details: moderate inhibitory activity; cited from earlier work
[3] = test system: cAMP- and cGMP-dependent kinases, and protein kinase C; details: cited from earlier work
[4] = test system: neuronal PC12 cells and sympathetic neurons; details: two model systems of neuronal survival; cited from earlier work
[5] = test system: neuronally differentiated PC12 cells; details: cited from earlier work; for concentration of maximal protection from death: camptothecin-treated; for cell death: day 6, in the presence or absence of camptothecin, both or individual
rat sympathetic neurons = details: camptothecin-treated; cited from earlier work
proliferating PC12 cells = details: cited from earlier work
cortical neurons = details: cited from earlier work; for IC50: protection against camptothecin-induced death
[6] = camptothecin-treated neuronal cells

| Structure (SMILES) | V/V0 (mean ± s.e.m.) ([1]; 1 mg/kg i.p. daily) | %T/C ([1]; 1 mg/kg i.p. daily) [%] | V/V0 (mean ± s.e.m.) ([1]; 3 mg/kg i.p. daily) | %T/C ([1]; 3 mg/kg i.p. daily) [%] | IC50 [2] [µM] | effect on other major protein kinases [3] | death of neuronal cells [4] | concentration of maximal protection from death [5] [µM] | cell death [5] | concentration of maximal protection from death (rat sympathetic neurons) [µM] | minimum concentration that fully inhibits DNA synthesis (proliferating PC12 cells) [µM] | IC50 (cortical neurons) [µM] | prevention of cell death [5, 6] | prevention of cell death (cortical neurons; [6]) |
| --- | --- | --- | --- | --- | --- | --- | --- | --- | --- | --- | --- | --- | --- | --- |
| Cl.Cl.N[C@H]1CC[C@H](Nc2nc(NCc3cccc(I)c3)c3ncn(C4CCCC4)c3n2)CC1 [Example 1, 2-[Trans-(4-aminocyclohexyl)amino]-6-(3-iodobenzylamino)-9-cyclopentylpurine dihydrochloride] | 4.8 ± 3.1 | 109 | 2.0 ± 1.0 | 44 |  |  |  |  |  |  |  |  |  |  |
| Cn1cnc2c(NCc3ccccc3)nc(NCCO)nc21 [Olomoucine, 6-(benzylamino)-2-[(2-hydroxyethyl)amino]-9-methylpurine] |  |  |  |  | ~7 | no effect | suppress the death | 200 | approximately 30% | 200 | 200 | 100 |  |  |
| CN1CC[C@H](c2c(O)cc(O)c3c(=O)cc(-c4ccccc4Cl)oc23)[C@H](O)C1 [flavopiridol] |  |  |  |  |  |  | suppress the death | 1 | approximately 30% | 1 | 1 | 0.1 |  |  |
| Cn1cnc2nc(NCCO)nc(NCc3ccccc3)c21 [iso-olomoucine] |  |  |  |  |  |  |  |  |  |  |  |  | failed to prevent the cell death | failed to prevent the cell death |
